According to paper PMC7835237, “Dual mechanism β-amino acid polymers promoting cell adhesion” (Nature Communications, 2021):

Tests used:
[1] = system: MC3T3-E1 preosteoblast cells; assay: Cell spreading area on modified surfaces (immunofluorescence analysis of cell morphology); format: cell-based, mouse
Description: The degree of cell spreading on a functionalized glass slide was measured by immunofluorescence analysis. After culture medium was removed, the slide was washed with PBS and then cells on the slide were fixed with 4% paraformaldehyde for 20 min. The slide was washed with PBS thrice and incubated for 5 min with 0.4% triton-X in PBS. Subsequently, the slide was washed with PBS thrice, followed by blocking with 3% bovine serum albumin (BSA) in PBS for 1 h at rt and then incubated with Alexa Fluor-555-conjugated anti-vinculin antibody (1:300 in PBS) overnight at 4 °C. The slide was washed with PBS thrice and incubated for 2 h with FITC-phalloidin (1:200 in PBS) and 4′-6-diamidino-2-phenylindole (DAPI) (5 μg/mL) for 10 min. The slide was washed with PBS thrice and its fluorescent images were collected on a confocal microscope (Nikon A1R, Japan).

[2] = system: MC3T3-E1 preosteoblast cells; assay: Integrin αvβ3 to block RGD, cell adhesion; format: cell-based, mouse; design: unit not given here; details: for Cell density (figure 5g) / Cell spreading area (figure 5f): - αvβ3: serum-incubated surface without integrin αvβ3, 2 h after seeding; for Supplementary Figure8, cell adhesion on modified surface: - αvβ3
Description: An aliquot of 10 μL α-MEM medium containing 10% FBS was added to each well (formed by a 50-well coverslip on the top of a glass slide) and the slide was incubated in a humidified atmosphere at 37 °C for 2 h[24]. The slide was washed with PBS and incubated with integrin αvβ3 (10 µg/mL in PBS) at 37 °C for 1 h. Then cells at a concentration of 1.5 × 10^5 cells/mL in a serum-free medium were added to each individual well, having bottom surface modified with DM50CO50 or RGD peptide. After the slide was incubated at 37 °C for 2 h, cells in each well were stained with a live/dead staining solution and the fluorescent images were captured under a microscope (Nikon Eclipse Ti-S, Japan) at eight different locations in each well. The collected images were analyzed using the Image-pro plus software.

[3] = Water contact angle of modified surfaces; format: physicochemical; details: modified glass surface, Millipore water drops
Description: The water contact angles of bare glass, OEG8, RGD, and DM50CO50-modified surfaces were measured with a contact angle meter (JC2000D2) from Shanghai Zhongchen Digital Technology Apparatus Co., Ltd. Liquid drops (Millipore water) were delivered to the surface using a microsyringe.

- Water contact angle [3]: 41 °
Substance: RGDSPC [cell adhesion gold standard RGD peptide (RGDSPC), attached to surface]
- Cell area of preosteoblast cells ([1]; cultured on modified surface for 3 h, replicate 1): 3956
- Cell area of preosteoblast cells ([1]; cultured on modified surface for 3 h, replicate 2): 3895
- Cell area of preosteoblast cells ([1]; cultured on modified surface for 3 h, replicate 3): 3549
- Cell area of preosteoblast cells ([1]; cultured on modified surface for 24 h, replicate 1): 4800
- Cell area of preosteoblast cells ([1]; cultured on modified surface for 24 h, replicate 2): 4752
- Cell area of preosteoblast cells ([1]; cultured on modified surface for 24 h, replicate 3): 4625
- Cell density (figure 5g) ([2]; value 1 of n = 9): 80
- Cell spreading area (figure 5f) ([2]; value 1 of n = 9): 3308.7
- Cell density (figure 5g) ([2]; value 2 of n = 9): 69
- Cell spreading area (figure 5f) ([2]; value 2 of n = 9): 3551.3
- Cell density (figure 5g) ([2]; value 3 of n = 9): 74
- Cell spreading area (figure 5f) ([2]; value 3 of n = 9): 2958.5
- Cell density (figure 5g) ([2]; value 4 of n = 9): 75
- Cell spreading area (figure 5f) ([2]; value 4 of n = 9): 3300.7
- Cell density (figure 5g) ([2]; value 5 of n = 9): 69
- Cell spreading area (figure 5f) ([2]; value 5 of n = 9): 3020
- Cell density (figure 5g) ([2]; value 6 of n = 9): 79
- Cell spreading area (figure 5f) ([2]; value 6 of n = 9): 2866.3
- Cell density (figure 5g) ([2]; value 7 of n = 9): 74
- Cell spreading area (figure 5f) ([2]; value 7 of n = 9): 2910.3
- Cell density (figure 5g) ([2]; value 8 of n = 9): 73
- Cell spreading area (figure 5f) ([2]; value 8 of n = 9): 3174.3
- Cell density (figure 5g) ([2]; value 9 of n = 9): 70
- Cell spreading area (figure 5f) ([2]; value 9 of n = 9): 3494.7
- Supplementary Figure8, cell adhesion on modified surface ([2]; replicate 1): 0.61
- Supplementary Figure8, cell adhesion on modified surface ([2]; replicate 2): 0.2888
- Supplementary Figure8, cell adhesion on modified surface ([2]; replicate 3): 0.3748
